# Results taken from publication PMC2657875 (Biochemistry, 2008).
# Read-outs that look alike come from different tables or passages of the source.
# Legend:
# human NAMPT [1] = target: T1, human NAMPT (Homo sapiens, UniProt P43490); experiment: ADP/ATP isotope exchange catalyzed by NAMPT; type: biochemical; details: for concentration required for half-maximal exchange activity: ADP/ATP exchange, 0.6 µM enzyme
# human NAMPT [2] = target: T1, human NAMPT; experiment: NAMPT kinetic parameters with ATP; type: biochemical
# [3] = test system: human vascular smooth muscular cells; details: cited from earlier work
# [4] = cited from earlier work
# human NAMPT [5] = target: T1, human NAMPT; experiment: Inhibition of ATP-coupled NMN synthesis; type: biochemical
# human NAMPT [6] = target: T1, human NAMPT; experiment: Inhibition of non ATP-coupled NMN synthesis; type: biochemical
# human NAMPT [7] = target: T1, human NAMPT; experiment: NAMPT kinetic parameters without ATP; type: biochemical; details: non ATP-coupled NMN synthesis
# human NAMPT [8] = target: T1, human NAMPT; details: continuous fluorometric coupled assay, with ATP (2.5 mM)
# human NAMPT [9] = target: T1, human NAMPT; experiment: Stimulated ATPase activity of NAMPT; type: biochemical; details: 1 mM compound, 2 mM ATP; for ATP hydrolysis rate (ATPase activity): […] enzyme
# [10] = test system: Salmonella typhimurium NAPT; details: cited from earlier work
# T1 sequence (P43490 whole entry): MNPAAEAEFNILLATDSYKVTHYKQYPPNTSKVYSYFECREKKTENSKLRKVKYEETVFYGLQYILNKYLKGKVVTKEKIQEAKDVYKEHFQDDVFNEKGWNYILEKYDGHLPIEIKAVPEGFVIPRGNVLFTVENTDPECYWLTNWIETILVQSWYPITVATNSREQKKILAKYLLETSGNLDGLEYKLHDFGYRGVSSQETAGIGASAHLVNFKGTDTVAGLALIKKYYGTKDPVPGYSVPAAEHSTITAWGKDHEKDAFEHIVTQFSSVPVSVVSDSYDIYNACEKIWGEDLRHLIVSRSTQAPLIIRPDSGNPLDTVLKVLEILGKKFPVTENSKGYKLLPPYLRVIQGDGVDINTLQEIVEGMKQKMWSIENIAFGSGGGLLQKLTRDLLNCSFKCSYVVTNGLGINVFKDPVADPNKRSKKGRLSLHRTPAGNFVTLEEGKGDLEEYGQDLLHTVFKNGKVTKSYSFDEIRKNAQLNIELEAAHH
structure (smiles),measurement,setting,value
Nc1ncnc2c1ncn2[C@@H]1O[C@H](COP(=O)(O)OP(=O)(O)O)[C@@H](O)[C@H]1O [ADP],concentration required for half-maximal exchange activity,human NAMPT [1],0.44 ± 0.05 mM
Nc1ncnc2c1ncn2[C@@H]1O[C@H](COP(=O)(O)OP(=O)(O)OP(=O)(O)O)[C@@H](O)[C@H]1O [ATP],Km,human NAMPT [2]; ATP-coupled NMN synthesis,7400 ± 1500 µM
same,concentration above which NMN synthesis is inhibited,human NAMPT [2]; ATP-coupled NMN synthesis,above 4 mM
same,concentration required for half-maximal exchange activity,human NAMPT [1],2.2 ± 0.2 mM
"Nc1ncnc2c1ncn2[C@@H]1O[C@H](COP(=O)(O)OP(=O)(O)OP(=O)(O)OP(=O)(O)OP(=O)(O)OC[C@H]2O[C@@H](n3cnc4c(N)ncnc43)[C@H](O)[C@@H]2O)[C@@H](O)[C@H]1O [Ap5A, P^1,P^5-di(adenosine-5’-) pentaphosphate, reference compound]",effect on ADP/ATP exchange,human NAMPT [1]; 10 µM,retained the same exchange rate
"O=C(/C=C/c1cccnc1)NCCCCC1CCN(C(=O)c2ccccc2)CC1 [FK866, (E)-N-[4-(1-benzoylpiperidin-4-yl)butyl]-3-(pyridin-3-yl) acrylamide]",NAD+ levels,[3],low levels of NAD^+
same,SIRT1 activity,[3],decrease of SIRT1 activity
same,binding to plasma proteins,[4]; clinical trials,substantial drug binding to plasma proteins
same,bioavailability,[4]; clinical trials,low bioavailability
same,intravenous clearance,[4]; clinical trials,rapid intravenous clearance
same,objective responses,[4]; continuous intravenous infusions over 96 h for a period of 4 weeks,no objective responses
NC(=O)C1=CN([C@@H]2O[C@H](COP(=O)(O)OP(=O)(O)OC[C@H]3O[C@@H](n4cnc5c(N)ncnc54)[C@H](O)[C@@H]3O)[C@@H](O)[C@H]2O)C=CC1 [NADH],Ratio Km/Ki (NAM),human NAMPT [5]; 2.5 mM ATP,< 1
same,Ratio Km/Ki (PRPP),human NAMPT [5]; 2.5 mM ATP,3
same,Ki,"human NAMPT [5]; read-out: Ki versus NAM, 2.5 mM ATP",3200 ± 200 nM
same,Ki,"human NAMPT [5]; read-out: Ki versus PRPP, 2.5 mM ATP",220 ± 20 nM
same,Ki,"human NAMPT [6]; read-out: Ki versus NAM, non ATP-coupled NMN synthesis, competitive vs NAM",> 100000 nM
"NC(=O)c1ccc[n+]([C@@H]2O[C@H](COP(=O)([O-])OP(=O)(O)OC[C@H]3O[C@@H](n4cnc5c(N)ncnc54)[C@H](O)[C@@H]3O)[C@@H](O)[C@H]2O)c1 [NAD^+, nicotinamide adenine dinucleotide]",Ratio Km/Ki (NAM),human NAMPT [5]; 2.5 mM ATP,< 1
same,Ratio Km/Ki (PRPP),human NAMPT [5]; 2.5 mM ATP,5
same,Ki,"human NAMPT [5]; Ki versus NAM, 2.5 mM ATP",2100 ± 200 nM
same,Ki,"human NAMPT [5]; Ki versus PRPP, 2.5 mM ATP",140 ± 14 nM
same,Ki,human NAMPT [6],> 100000 nM
"NC(=O)c1cccnc1 [NAM, nicotinamide]",Km,human NAMPT [7]; no Pi,0.855 ± 0.022 µM
same,Km,human NAMPT [7]; with Pi (2 mM phosphate),0.235 ± 0.017 µM
same,Km,"human NAMPT [2]; read-out: apparent Km (affinity), direct [14C]NAM assay with ATP, NAD+ present",0.017 ± 0.002 µM
same,Km,human NAMPT [8],0.057 ± 0.006 µM
"O=P(O)(O)NP(=O)(O)O [PNP, imidodiphosphate, reference compound]",ATP hydrolysis rate (ATPase activity),human NAMPT [9],2.6 min⁻¹
"O=P(O)(O)OC[C@H]1O[C@H](OP(=O)(O)OP(=O)(O)O)[C@H](O)[C@@H]1O [PRPP, α-D-5-phosphoribosyl-1-pyrophosphate]",Km,human NAMPT [7]; no Pi,7.2 ± 0.6 µM
same,Km,human NAMPT [7]; with Pi (2 mM phosphate),11.7 ± 0.8 µM
same,Km,human NAMPT [2]; ATP-coupled NMN synthesis,0.63 ± 0.03 µM
same,fold lowering of Km by ATP,human NAMPT [2]; ATP-coupled vs non ATP-coupled,10 fold
same,effect on ATP hydrolysis,human NAMPT [9],inhibited ATP hydrolysis
same,effect on ADP/ATP exchange,human NAMPT [1]; 100 µM,near-complete inhibition
same,Km,[10]; ATP-coupled NAMN synthesis,22 ± 3.3 µM
same,Km,[10]; non ATP-coupled NAMN synthesis,4500 ± 2200 µM
O=P(O)(O)O [Pi],Km,human NAMPT [7]; read-out: Km of Pi,180 ± 20 µM
O=P(O)(O)OP(=O)(O)O [pyrophosphate],ATP hydrolysis rate (ATPase activity),human NAMPT [9],1.1 min⁻¹
